SMILES strings stand for the structures. pIC50: −log10 of the molar value.

The values below come from patent publication US20110301146A1 (ONCOTHERAPY SCIENCE, INC., priority 2008, published 2011).

For the assay, the target named is T1, GSK-3beta (Homo sapiens, UniProt P49841).
T1 construct: purchased Invitrogen
T1 sequence (P49841 whole entry): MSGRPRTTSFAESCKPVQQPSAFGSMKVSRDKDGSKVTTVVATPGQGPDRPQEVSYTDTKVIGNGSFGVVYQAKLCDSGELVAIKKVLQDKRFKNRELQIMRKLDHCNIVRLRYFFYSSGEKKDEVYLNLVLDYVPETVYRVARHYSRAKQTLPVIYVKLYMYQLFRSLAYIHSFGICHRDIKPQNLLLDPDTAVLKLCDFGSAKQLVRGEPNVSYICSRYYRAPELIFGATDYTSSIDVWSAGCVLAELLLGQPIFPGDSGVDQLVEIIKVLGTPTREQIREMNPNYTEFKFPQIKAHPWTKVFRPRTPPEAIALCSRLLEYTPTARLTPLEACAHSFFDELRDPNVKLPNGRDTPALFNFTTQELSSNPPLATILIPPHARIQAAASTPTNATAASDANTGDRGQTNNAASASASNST
Nature of the assay: Z'-LYTE kinase assay (FRET, SER/THR 9 peptide). Format: biochemical. The following applies: 0.04 ng/micro-l GSK-3beta (Invitrogen), 2 micro-M SER/THR 9 peptide, 15 micro-M ATP, 1 hour at room temperature, 1% DMSO. The protocol:
The Z′-LYTE kinase assay kit employs a fluorescence resonance energy transfer (FRET) between two fluorophores, coumarin and fluorescein, attached to each end of a substrate peptide.
For 0% phosphorylation control, ATP was omitted from the reaction mixture. For 100% phosphorylation control, SER/THR 9 phosphopeptide was used in place of the SER/THR 9 peptide. Following 1 hour incubation at room temperature, the reaction was stopped by the addition of half assay volume of development solution and further incubated for 1 hour at room temperature. […] The extent of phosphorylation was determined according to the 0% and 100% phosphorylation control samples using the following equation: […]
IC50 values were calculated by nonlinear four parameter fit using SigmaPlot, version 10.0 (Systat Software, Inc.).
In turn, `O=C(N[C@H]1CCCNC1)c1ccc(O)c2[nH]c(-c3ccc(N4CCNCC4)s3)nc12` [Example 57, (S)-7-hydroxy-2-(5-(piperazin-1-yl)thiophen-2-yl)-N-(piperidin-3-yl)-1H-benzo[d]imidazole-4-carboxamide] had a pIC50 of 7.42.
The result for `O=C(NCC1CCCCN1)c1ccc(O)c2[nH]c(C3CCCC3)nc12` (stereo not shown) [Example 14, 2-cyclopentyl-4-hydroxy-N-(piperidin-2-ylmethyl)-1H-benzo[d]imidazole-7-carboxamide] reads 5.89.
The result for `NC12CC3CC(C1)CC(NC(=O)c1ccc(O)c4[nH]c(C5CC6CCC5C6)nc14)(C3)C2` (stereo not shown) [Example 53] reads 5.72; that for `O=C(NC1CCNCC1)c1ccc(O)c2[nH]c(-c3cccs3)nc12` [Example 40, 7-Hydroxy-N-(piperidin-4-yl)-2-(thiophen-2-yl)-1H-benzo[d]imidazole-4-carboxamide], 7.74; that for `O=C(NCC1CNC1)c1ccc(O)c2[nH]c(C3CC3)nc12` [Example 13, N-(azetidin-3-ylmethyl)-2-cyclopropyl-4-hydroxy-1H-benzo[d]imidazole-7-carboxamide], 6.85.
Compound `CN1CCCC(NC(=O)c2ccc(O)c3[nH]c(C4CC4)nc23)C1` (stereo not shown) [Example 8, 2-cyclopropyl-4-hydroxy-N-(1-methylpiperidin-3-yl)-1H-benzo[d]imidazole-7-carboxamide] gave a pIC50 of 5.89.
The same measure for `O=C(NC1CCNCC1)c1ccc(O)c2[nH]c(C3CC3)nc12` [Example 10, 2-cyclopropyl-4-hydroxy-N-(piperidin-4-yl)-1H-benzo[d]imidazole-7-carboxamide]: 7.52; for `O=C(NCC1CCCNC1)c1ccc(O)c2[nH]c(C3CC4CCC3C4)nc12` (stereo not shown) [Example 48, 2-(Bicyclo[2.2.1]heptan-2-yl)-7-hydroxy-N-(piperidin-3-ylmethyl)-1H-benzo[d]imidazole-4-carboxamide]: 7.17.
The same measure for `O=C(N[C@H]1CCCNC1)c1ccc(O)c2[nH]c(-c3ccc(Br)s3)nc12` [Example 51, (S)-2-(5-bromothiophen-2-yl)-7-hydroxy-N-(piperidin-3-yl)-1H-benzo[d]imidazole-4-carboxamide]: 7.80.
The same measure for `O=C(NC1CCNC1)c1ccc(O)c2[nH]c(C3CC3)nc12` (stereo not shown) [Example 12, 2-cyclopropyl-4-hydroxy-N-(pyrrolidin-3-yl)-1H-benzo[d]imidazole-7-carboxamide]: 6.68; for `N[C@H]1CC[C@@H](CNC(=O)c2ccc(O)c3[nH]c(C4CC5CCC4C5)nc23)CC1` (stereo partly drawn) [Example 56, N-{[(cis)-4-Aminocyclohexyl]methyl}-2-(bicyclo[2.2.1]heptan-2-yl)-7-hydroxy-1H-benzo[d]imidazole-4-carboxamide]: 6.62.
`O=C(NCC1CCNCC1)c1ccc(O)c2[nH]c(-c3cccs3)nc12` [Example 42, 7-Hydroxy-N-(piperidin-4-ylmethyl)-2-(thiophen-2-yl)-1H-benzo[d]imidazole-4-carboxamide] showed a pIC50 of 7.00.
On to `O=C(N[C@H]1CCCNC1)c1ccc(O)c2[nH]c(Cc3cccs3)nc12` [Example 59, (S)-7-hydroxy-N-(piperidin-3-yl)-2-(thiophen-2-ylmethyl)-1H-benzo[d]imidazole-4-carboxamide], for which the pIC50 was 6.77.
The same measure for `O=C(NCC1CCNCC1)c1ccc(O)c2[nH]c(C3CC3)nc12` [Example 5, 2-Cyclopropyl-4-hydroxy-N-(piperidin-4-ylmethyl)-1H-benzo[d]imidazole-7-carboxamide]: 6.49; for `CN1CCCC(NC(=O)c2ccc(O)c3[nH]c(-c4cccs4)nc23)C1` (stereo not shown) [Example 41, 7-Hydroxy-N-(1-methylpiperidin-3-yl)-2-(thiophen-2-yl)-1H-benzo[d]imidazole-4-carboxamide]: 6.74; for `O=C(N[C@H]1CCCNC1)c1ccc(O)c2[nH]c(C3CCCC3)nc12` [Example 16, (S)-2-Cyclopentyl-4-hydroxy-N-(piperidin-3-yl)-1H-benzo[d]imidazole-7-carboxamide]: 6.92.
As for `O=C(NCC1CCCNC1)c1ccc(O)c2[nH]c(-c3ccccc3)nc12` (stereo not shown) [Example 19, 4-hydroxy-2-phenyl-N-(piperidin-3-ylmethyl)-1H-benzo[d]imidazole-7-carboxamide], the pIC50 is 6.89.
`NC12CC3CC(C1)CC(NC(=O)c1ccc(O)c4[nH]c(-c5cccs5)nc14)(C3)C2` [Example 54, 2-(Thiophene-2-yl)-7-hydroxy-N-(adamantate-3-ylamino)-1H-benzo[d]imidazole-4-carboxamide] gave a pIC50 of 6.48.
The same measure for `O=C(N[C@H]1CCCNC1)c1ccc(O)c2[nH]c(C3CC3)nc12` [Example 9, (S)-2-cyclopropyl-4-hydroxy-N-(piperidin-3-yl)-1H-benzo[d]imidazole-7-carboxamide]: 7.00; for `O=C(NCC1CNC1)c1ccc(O)c2[nH]c(-c3cccs3)nc12` [Example 43, N-(Azetidin-3-ylmethyl)-7-hydroxy-2-(thiophen-2-yl)-1H-benzo[d]imidazole-4-carboxamide]: 7.37; for `N[C@H]1CC[C@H](NC(=O)c2ccc(O)c3[nH]c(-c4cccs4)nc23)CC1` [Example 47, N-(4-Aminocyclohexyl)-7-hydroxy-2-(thiophen-2-yl)-1H-benzo[d]imidazole-4-carboxamide]: 7.29.
In turn, `O=C(NC1CCCNC1)c1ccc(O)c2[nH]c(C3CC4CCC3C4)nc12` (stereo not shown) [Example 49, 2-(Bicyclo[2.2.1]heptan-2-yl)-7-hydroxy-N-(piperidin-3-yl)-1H-benzo[d]imidazole-4-carboxamide] had a pIC50 of 6.64.
The result for `O=C(N[C@H]1CC[C@H](O)CC1)c1ccc(O)c2[nH]c(-c3cccs3)nc12` [Example 20, 7-Hydroxy-N-(4-hydroxycyclohexyl)-2-(thiophen-2-yl)-1H-benzo[d]imidazole-4-carboxamide] reads 7.59; that for `O=C(N[C@H]1CCCNC1)c1ccc(O)c2[nH]c(-c3ccccc3)nc12` [Example 17, (S)-4-Hydroxy-2-phenyl-N-(piperidin-3-yl)-1H-benzo[d]imidazole-7-carboxamide], 6.92.
`O=C(NCC1CCCNC1)c1ccc(O)c2[nH]c(C3CCCC3)nc12` (stereo not shown) [Example 15, 2-Cyclopentyl-4-hydroxy-N-(piperidin-3-ylmethyl)-1H-benzo[d]imidazole-7-carboxamide] showed a pIC50 of 6.89.
For `O=C(NCC1CCNC1)c1ccc(O)c2[nH]c(-c3cccs3)nc12` (stereo not shown) [Example 46, 7-Hydroxy-N-(pyrrolidin-3-ylmethyl)-2-(thiophen-2-yl)-1H-benzo[d]imidazole-4-carboxamide], the pIC50 is 7.60.
Regarding `O=C(NC[C@H]1CCCNC1)c1ccc(O)c2[nH]c(Cc3cccs3)nc12` [Example 60, (S)-7-hydroxy-N-(piperidin-3-ylmethyl)-2-(thiophen-2-ylmethyl)-1H-benzo[d]imidazole-4-carboxamide], the pIC50 is 6.80.
The same measure for `NC1CCCC(NC(=O)c2ccc(O)c3[nH]c(C4CC5CCC4C5)nc23)C1` (stereo not shown) [Example 55, N-(3-Aminocyclohexyl)-2-(bicyclo[2.2.1]heptan-2-yl)-7-hydroxy-1H-benzo[d]imidazole-4-carboxamide]: 6.60.

What is called pIC50 is −log10 of the IC50, conventionally taken in molar units.
